Series [1] deals with PSMA-positive LS174T cells. Put plainly: Resazurin-based cytotoxicity assay. The conditions noted are these: for cell viability: 48 h post treatment. Type of series: cell-based, human. On the procedure: LS174T human colon carcinoma cells transfected with human PSMA were cultured in RPMI-1640 media supplemented with 2 mM glutamine, 10% fetal bovine serum (FBS) and 0.3 mg/mL G418 (Geneticin, Sigma Aldrich, Burlington, MA, USA). The cells were provided by Dr. Sandra Heskamp (Radboud UMC, Nijmegen, The Netherlands).
A resazurin in vitro toxicology assay kit was used to determine cytotoxicity. Briefly, 5 × 10^3 LS174T cells were seeded in a volume of 100 µL per well in 96-well plates and incubated at 37 °C with 5% CO2 for 24 h before the experiment. After incubation, the media were removed, and the wells were washed once with PBS. Then, ePSMA-DM1 at the concentrations of 1, 10, 100 and 1000 nM and the positive control DM1 (1000 nM) were prepared in culture media (RPMI-1640 media supplemented with 2 mM glutamine, 10% fetal bovine serum (FBS) and 0.3 mg/mL G418). Media and PSMA-617 (100 nM) were used as negative controls. Cells were incubated with 100 µL of the tested compounds for 48 and 72 h at 37 °C with 5% CO2. After incubation, media were removed, and each well was washed once with PBS. Next, 100 µL of 10% resazurin solution (TOX8, Sigma-Aldrich) in culture media was added to each well and incubated for 2.5 h. Fluorescence was measured using the HIDEX Sense Optical System with excitation at 544 nm and emission at 590 nm. Data were analyzed using GraphPad Prism 9.0 and expressed as cell viability (%). The experiments were performed in triplicate.

Another series concerns the target T1, Recombinant human PSMA (Homo sapiens, UniProt Q04609).
T1 construct: purchased R & D systems, Abingdon, UK
Put plainly: NAALADase enzymatic assay (binding to PSMA). The format is biochemical. How it is done:
Recombinant human PSMA (rhPSMA; R & D systems, Abingdon, UK) was diluted in assay buffer (50 mM HEPES, 0.1 M NaCl, pH 7.5) to 0.4 μg/mL. The substrate Ac-Asp-Glu (40 μM) was mixed with ePSMA-DM1 or with a reference (PSMA-617) at concentrations ranging from 10^−6 to 10^−13 M in a final volume of 12.5 μL assay buffer. The mixtures were combined with 12.5 μL of the rhPSMA solution and incubated for 1 h at 37 °C in 384-well black polystyrene microplates (ThermoFisher, Bleiswijk, The Netherlands). A volume of 25 μL of a working solution of the Amplex Red glutamic acid kit (ThermoFisher, Bleiswijk, The Netherlands) was added and incubated at 37 °C for 30 min. Release of glutamate was measured by fluorescence with a HIDEX Sense Optical System (Goedereede, The Netherlands) set at 535 nm (excitation) and 590 nm (emission). Data were normalized, and one-site total binding regression was applied for analysis with GraphPad Prism v9.0 (GraphPad Software, San Diego, CA, USA).

The next series is described as follows: Stability in PBS. The conditions noted are these: 24 h post incubation, 37 °C. Type of series: physicochemical. On the procedure: [^111In]In-ePSMA-DM1 (~10 MBq, 20 µL) was mixed with 80 μL of PBS (0.01 M, pH 7.4) and incubated at 37 °C for up to 24 h. A sample of the PBS solution was loaded directly onto the radio-HPLC at 1, 4 and 24 h post incubation.
The test system of series [2] is BALB/c nu/nu LS174T xenografted mice. The experiment in a line: Ex vivo biodistribution. To be noted: estimated, one-phase decay. Type of series: in vivo, mouse. On the procedure:
Animal experiments were performed using male BALB/c nude mice (8–10 weeks old; Janvier Labs, Le Genest-Saint-Isle, France). Animals were housed in individually ventilated cages (Blue line IVC, 2 mice per cage) under sterile standard conditions with cage enrichments present and free access to animal chow (Sniff GmbH, Soest, Germany) and water. They were acclimated for 1 week prior to experiments. Mice were subcutaneously inoculated with 4.0 × 10^6 LS174T cells in the right flank diluted in 100 μL of cell suspension […]. The average tumor volume size per group (n = 4) was of 206.2 ± 7.9 mm^3 (average weight of 105.8 ± 7.3 mg) after non-blinded grouping to enable homogenous tumor size distribution. [^111In]In-ePSMA-DM1 was injected intravenously via the tail vein. All experiments were approved by the institutional Animal Welfare Committee and were conducted in accordance to the guidelines of the Revised Dutch Act on Animal Experimentation (WOD).
Mice were intravenously injected with ~1 nmol of [^111In]In-ePSMA-DM1 (5 MBq). Mice (n = 4/timepoint) were euthanized by cervical dislocation at 1, 4 and 24 h p.i. A block group (co-injection of 50 nmol of PSMA-617) was included, and mice were euthanized at 4 h p.i. Organs (blood, heart, lungs, liver, spleen, stomach, intestines, pancreas, kidneys, muscle, skin, bone and prostate) and the tumors were collected in pre-weighed tubes, weighed after organ collection, and measured in the γ-counter, for which the calibration factor was determined by measuring different known activities of In-111. Activity was corrected for decay, and uptake was expressed as percentage of the injected dose per gram of the tissue (% ID/g). The biological half-lives in tissues of [^111In]In-ePSMA-DM1 were determined using a one-phase decay algorithm in GraphPad Prism 9.0 (GraphPad Software, Boston, MA, USA).

A short description of a further series: Stability in mouse serum. The conditions noted are these: 24 h post incubation, 37 °C. Type of series: in vitro ADME. How it is done:
[^111In]In-ePSMA-DM1 (~30 MBq, 70 µL) was mixed with 330 μL of mouse serum and incubated at 37 °C for up to 24 h. To a separate vial containing 50 µL of acetonitrile, 50 μL of the mouse serum solution was added after 1, 4 and 24 h of incubation. The sample was centrifuged at 5000× g for 20 min. The supernatant was analyzed by radio-HPLC.

The nature of series [3]: Glutathione (GSH) stability / drug release assay. The format is in vitro ADME. On the procedure:
The protocol was adapted from the literature. A 5 mM solution of L-glutathione was prepared in PBS, and 990 μL aliquots were dispensed into Eppendorf tubes. To each tube, 10 μL of a solution of ePSMA-DM1 (1 mM) in MeOH was added, and the mixtures were incubated at 37 °C. Then 50 μL aliquots of the solution were taken at 10 min, 30 min, 1, 2, 4 and 6 h and analyzed by LC-MS. The experiments were performed in triplicate.

Consider 5 compounds from article PMC10458530, “Synthesis and Evaluation of ePSMA-DM1: A New Theranostic Small-Molecule Drug Conjugate (T-SMDC) for Prostate Cancer” (Pharmaceuticals, 2023).

The structures appear in SMILES notation. Values joined by “and” are separate entries in the source; they are usually repeats but may differ in a detail not shown here. Equal values may be shown once. “Also recorded” adds a separate entry of the source. Read-outs that look alike come from different tables or passages of the source. Non-standard residues stand in square brackets, D forms with d. Residues, ends and D or L forms follow the SMILES beside them. *: point of attachment. Propanoyl(3-SS-DM1) = COc1cc2cc(c1Cl)N(C)C(=O)C[C@H](OC(=O)[C@H](C)N(C)C(=O)CCSSCCC(=O)*)[C@]1(C)O[C@H]1[C@H](C)[C@@H]1C[C@@](O)(NC(=O)O1)[C@H](OC)/C=C/C=C(\C)C2; DOTA = O=C(O)CN1CCN(CC(=O)O)CCN(CC(=O)*)CCN(CC(=O)O)CC1; EuK = O=C(O)CC[C@H](NC(=O)N[C@@H](CCCCN*)C(=O)O)C(=O)O; Sta = CC(C)C[C@H](N)[C@@H](O)CC(=O)O; Ahx = NCCCCCC(=O)O

T1 sequence (Q04609 whole entry): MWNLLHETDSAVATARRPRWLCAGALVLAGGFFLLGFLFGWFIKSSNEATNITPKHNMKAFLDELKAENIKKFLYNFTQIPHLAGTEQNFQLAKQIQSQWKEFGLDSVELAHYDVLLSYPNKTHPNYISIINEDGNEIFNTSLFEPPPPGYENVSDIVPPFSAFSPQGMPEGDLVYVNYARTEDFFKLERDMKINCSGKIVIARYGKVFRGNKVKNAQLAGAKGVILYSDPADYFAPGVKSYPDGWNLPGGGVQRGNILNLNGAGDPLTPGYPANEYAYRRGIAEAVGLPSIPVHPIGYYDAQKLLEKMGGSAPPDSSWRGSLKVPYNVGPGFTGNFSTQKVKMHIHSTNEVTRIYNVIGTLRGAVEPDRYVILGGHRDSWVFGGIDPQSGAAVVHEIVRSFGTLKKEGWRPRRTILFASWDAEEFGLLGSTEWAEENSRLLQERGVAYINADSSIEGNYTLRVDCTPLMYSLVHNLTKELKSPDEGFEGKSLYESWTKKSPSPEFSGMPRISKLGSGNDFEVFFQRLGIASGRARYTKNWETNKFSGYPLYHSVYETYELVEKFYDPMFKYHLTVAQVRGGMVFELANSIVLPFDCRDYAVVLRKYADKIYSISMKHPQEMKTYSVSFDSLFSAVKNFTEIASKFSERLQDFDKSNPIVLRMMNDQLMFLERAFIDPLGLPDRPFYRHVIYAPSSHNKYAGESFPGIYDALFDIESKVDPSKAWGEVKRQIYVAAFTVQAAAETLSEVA

For the compound `COc1cc2cc(c1Cl)N(C)C(=O)C[C@H](OC(=O)[C@H](C)N(C)C(=O)CCS)[C@]1(C)O[C@H]1[C@H](C)[C@@H]1C[C@@](O)(NC(=O)O1)[C@H](OC)/C=C/C=C(\C)C2` [DM1, Mertansine, reference compound], the cell viability in series [1] (1000 nM) is listed as ~ 50%. Besides, the “decrease in cell viability” value in series [1] (1000 nM, 72 h) was “more than 85%”.
For the compound `O=C(O)CC[C@H](NC(=O)N[C@@H](CCCCNC(=O)[C@H](Cc1ccc2ccccc2c1)NC(=O)[C@H]1CC[C@H](CNC(=O)CN2CCN(CC(=O)O)CCN(CC(=O)O)CCN(CC(=O)O)CC2)CC1)C(=O)O)C(=O)O` [PSMA-617, reference compound], the IC50 at Recombinant human PSMA (NAALADase assay, rhPSMA, substrate Ac-Asp-Glu, read-out: IC50 (binding affinity to PSMA)) was 2.19 ± 0.78 nM. Further, the “decrease in viability” value in series [1] (100 nM, negative control) is “not observed”.
For `COc1cc2cc(c1Cl)N(C)C(=O)C[C@H](OC(=O)[C@H](C)N(C)C(=O)CCSSCCC(=O)NCCCC[C@H](NC(=O)CN1CCN(CC(=O)O)CCN(CC(=O)O)CCN(CC(=O)O)CC1)C(=O)N[C@@H](CC(=O)O)C(=O)N[C@@H](Cc1ccccc1)C(=O)N[C@@H](CC(C)C)[C@@H](O)CC(=O)NCCCCCC(=O)NCCCC[C@H](NC(=O)N[C@@H](CCC(=O)O)C(=O)O)C(=O)O)[C@]1(C)O[C@H]1[C@H](C)[C@@H]1C[C@@](O)(NC(=O)O1)[C@H](OC)/C=C/C=C(\C)C2` [[^111In]In-ePSMA-DM1] [metal not drawn] ({DOTA}-K(Propanoyl(3-SS-DM1))DF[Sta][Ahx]-EuK), in “Stability in PBS”, the “Stability in PBS (%)” value is 90.9%. Moreover, in series [2], the “half-life in the blood” value was 1.5 h and the “half-life in the tumor” value was 2.1 h. Besides, in “Stability in mouse serum”, the “Stability in Mouse Serum (%)” value was found to be 82.9%.
In the case of `COc1cc2cc(c1Cl)N(C)C(=O)C[C@H](OC(=O)[C@H](C)N(C)C(=O)CCSSCCC(=O)NCCCC[C@H](NC(=O)CN1CCN(CC(=O)O)CCN(CC(=O)O)CCN(CC(=O)O)CC1)C(=O)N[C@@H](CC(=O)O)C(=O)N[C@@H](Cc1ccccc1)C(=O)N[C@@H](CC(C)C)[C@@H](O)CC(=O)NCCCCCC(=O)NCCCC[C@H](NC(=O)N[C@@H](CCC(=O)O)C(=O)O)C(=O)O)[C@]1(C)O[C@H]1[C@H](C)[C@@H]1C[C@@](O)(NC(=O)O1)[C@H](OC)/C=C/C=C(\C)C2` [[^177Lu]Lu-ePSMA-DM1] [metal not drawn] ({DOTA}-K(Propanoyl(3-SS-DM1))DF[Sta][Ahx]-EuK), in “Stability in PBS”, the “Stability in PBS (%)” value turned out to be 81.4%. For the same compound, the “Stability in Mouse Serum (%)” value in the series “Stability in mouse serum” is given as 91.2%.
Turning to `COc1cc2cc(c1Cl)N(C)C(=O)C[C@H](OC(=O)[C@H](C)N(C)C(=O)CCSSCCC(=O)NCCCC[C@H](NC(=O)CN1CCN(CC(=O)O)CCN(CC(=O)O)CCN(CC(=O)O)CC1)C(=O)N[C@@H](CC(=O)O)C(=O)N[C@@H](Cc1ccccc1)C(=O)N[C@@H](CC(C)C)[C@@H](O)CC(=O)NCCCCCC(=O)NCCCC[C@H](NC(=O)N[C@@H](CCC(=O)O)C(=O)O)C(=O)O)[C@]1(C)O[C@H]1[C@H](C)[C@@H]1C[C@@](O)(NC(=O)O1)[C@H](OC)/C=C/C=C(\C)C2` [ePSMA-DM1] ({DOTA}-K(Propanoyl(3-SS-DM1))DF[Sta][Ahx]-EuK), on Recombinant human PSMA, the IC50 was determined as 45.3 ± 1.84 nM. The “cytotoxic effect” value in series [1] (1 nM, 48 and 72 h) is recorded as “not sufficient to elicit cell death; also recorded: not observed”. Also, the cell viability in series [1] (100 nM) and in series [1] (1000 nM) was ~ 50% in each case. Moreover, the drug released in series [3] (after 2 h, 5 mM GSH) is ~ 50% and 50%. Moreover, the half-life at 10 µM in series [3] (buffer, 5 mM GSH in PBS, 37 °C, read-out: half-life in a reducing environment (converted)) was 2 h.
